# Data as given in patent publication US6573296B2, “Therapeutic quassinoid preparations with antineoplastic, antiviral, and herbistatic activity” (priority 1997, dated 2003).
# Where two headings read alike, the source gives them in different places.
# Legend:
# H8 = assay: soft agar disk diffusion zone of inhibition assay; assay type: cell-based, human
# Excerpt: (§1) The following human tumors were used: Human adenosquamous lung tumor H-125 (7) and colon tumors H8, HCT-116, and CX-1 were used for in vitro testing only. Each human cell line was maintained in culture until plating was done. HCT-116, H8, and CX-1 were maintained in McCoy's media and heat inactivated fetal bovine serum (11% FBS). It was passaged (1:5 dilution) twice week following enzymatic dissociation using a trypsin/PBS-EDTA mixture. H-125 was maintained in CMRL/Fischer media (1:1) with 11% FBS. It was mechanically dissociated and passaged (3:10 dilution) weekly. For the plating assay, all cells were mechanically dispersed and diluted in the CMRL/Fischer. media mixture.
# CX-1 = assay: soft agar disk diffusion zone of inhibition assay; assay type: cell-based, human
# Excerpt: as §1
# L1210 = assay: soft agar disk diffusion zone of inhibition assay; assay type: cell-based, mice
# M17/Adr = details: multidrug resistant, p-glycoprotein expressing mammary tumor versus leukemia
# [1] = test system: colon adenocarcinoma #38 [C38]; assay: in vivo chemotherapy of SC transplanted tumor; set-up: species or system mice; details: for Cures / MTD Total Dose: C38; for Cures: IV at MTD, cured/total mice; for MTD Total Dose: IV, days: Glaucarubinone 3,5-10, Holacanthone 3-12, Glaucarubolone 3-6, Chaparrinone 3-9; for in vivo activity against C38, in words: mouse
# Excerpt: (§2) Mice. Inbreds mice used were C57B1/6, C3H/He, Balb/c, and DBA/2; hybrids were: B6D2F1 (C57B1/6 females×DBA/2 males), and CD2F1 (Balb/c females×DBA/2 males). All mice were obtained from the Frederick Cancer Research Facility, Frederick, Md.
# (§3) Tumors were maintained in the mouse strain of origin and were transplanted into either an appropriate F1 hybrid or the strain of origin for therapy trials. All mice were over 17 g at the start of therapy; the range of individual body weights in each experiment was within 2 g. The mice were supplied food and water ad libitum.
# (§4) Antitumor Agents. The compound easily dissolved in the diluent which consisted of 3% [V/V (100%-Pure)] Ethanol, 1% (V/V) polyoxyethylanesorbitan monopalmitate (P.O.E.40) and 96% sterile distilled water. The primary route of administration was intravenous (IV).
# (§5) […] Chemotherapy. The methods of protocol design, tumor transplantation, drug treatment, endpoint determination, definition of terms, toxicity evaluation, data analysis, quantification of tumor cell kill, and the biologic significance of the drug treatment results with transplantable tumors have been presented. The following is a brief summary of those methods as they apply to the work described.
# (§6) The animals necessary to begin an experiment were pooled, implanted bilaterally SC on day 0 with 30 to 60 mg tumor fragments using a 12 gauge trocar, and again pooled before randomization to the various treatment and control group. Chemotherapy was either started within 3 days after tumor implantation while the number of cells per mouse was relatively small (10^7 to 10^8 cells), or allowed to grow to palpation (about 3×10^8 cells) in a more advanced stage trial.
# (§7) Tumors were measured with a caliper either once or twice weekly (as needed) until either tumors exceeded 1500 mg or cure was. assured. Tumor weights were estimated from two-dimensional measurements:
# (§8) Tumor Weight (mg)=(a×b^2)/2, where a and b are the tumor length and width (mm) respectively.
# (§9) Tumor growth delay. (T-C value), where T is the median time (in days) required for the treatment group tumors to reach a predetermined size, and C is the median time (in days) for the control group tumors to reach the same size. Tumor-free survivors were excluded from these calculations (cures were tabulated separately).
# (§10) Calculation of tumor cell kill. For SC growing tumors, the log10 cell kill was calculated from the following formula: [formula]
# (§11) Where T-C is the tumor growth delay (in days) as described above and Td is the tumor volume doubling time (in days), the latter estimated from the best fit straight line from a log-linear growth plot of the control-group tumors in exponential growth (500 to 1500 mg range). The conversion of the T-C values of log10 cell kill is possible because the Td for tumors regrowing post-treatment approximated the Td values of the tumors in untreated control mice.
# (§12) Determination of activity by tumor growth inhibition (T/C value). Measurements were carried out simultaneously in both the treatment and control groups. When the control group tumors reached approximately 750-1500 mg in size (median of group), the median tumor weight of each group was determined (including zeros).
# [2] = test system: mammary adenocarcinoma #16/C [Mamm 16/C]; assay: in vivo chemotherapy of SC transplanted tumor; set-up: species or system mice; details: for MTD Total Dose: MAM 16/C, IV days: Glaucarubinone 1-11, Holacanthone 1-9/, Chaparrinone 1-6; for in vivo activity against Mam 16/C, in words: mouse
# Excerpt: as §2, §3, §4, §5, §6, §7, §8, §9, §10, §11, §12
# [3] = test system: mammary adenocarcinoma 17/A/ADR [Mamm 17/Adr]; assay: in vivo chemotherapy of SC transplanted tumor; set-up: species or system mice
# Excerpt: as §2, §3, §4, §5, §6, §7, §8, §9, §10, §11, §12
# C38 = assay: soft agar disk diffusion zone of inhibition assay; assay type: cell-based, mice
# [4] = test system: leukemia and solid tumor cells; assay: in vitro differential cytotoxicity, solid tumor versus leukemia; assay type: cell-based; details: for solid tumor selectivity in vitro: solid tumor versus leukemia zones
# [5] = test system: porcine pseudorabies virus; details: rabbit kidney cells, visually monitored
# Tomato plants = assay: growth of plants in peat after treatment; assay type: in vivo
# Description: Tomato plants about 3.5 cm high at the time of treatment were grown in peat in a flat of 1.5 inch diameter compartments and were treated with either aqueous simalikalactone (solution QD-1) or aqueous glaucarubolone (solution QD-2) containing 0.1% Triton X-100. The final volume/plant was 10 μ1 for the aqueous solution and 200 µl of the aqueous solution containing Triton X-100. […] With the aqueous treatment, plants also were inhibited but not as markedly as with detergent.
# NADH oxidase = NADH oxidase activity of soybean hypocotyl plasma membrane vesicles; assay type: biochemical; details: Isolated PM vesicles; read-out: ED50, Inhibition of NADH oxidase
# soybean hypocotyls = assay: growth of sections cut from dark-grown soybean hypocotyls; details: Excised segments of etiolated soybean hypocotyls (18 h)
# human rhinovirus-14 = assay: cytopathic effect of rhinovirus in HeLa cells; assay type: cell-based; details: HeLa cells (Wisconsin strain), visually observed
# Description: C. HeLa cells (Wisconsin strain, Berlin, Germany) were contacted with human rhinovirus-14. Infected cells (Wisconsin strain) were visually observed. […] HeLa cells were not killed by any compounds used. Cells of other HeLa lines (eg. ATCC CCL2) were killed. Glaucarubolone, simalikalactone D and chaparrinone were tested on cell killing and virus production by primary blood monocytes. All three drugs were tested at five concentrations (0, 10^−9, 10^−8, 10^−7, and 10^−6 M). Drugs were given at different times pre-infection, given at the time of infection, or were administered at different times post-infection.
# [6] = test system: pancreatic ductal adenocarcinoma #03 [PO3]; assay: in vivo chemotherapy of SC transplanted tumor; set-up: species or system mice; details: for % T/C / Cures / Log Cell Kill / MTD Total Dose: PO3
# Excerpt: as §2, §3, §4, §5, §6, §7, §8, §9, §10, §11, §12
# P388 = assay: soft agar disk diffusion zone of inhibition assay; assay type: cell-based, mice; details: 0.25 ug/disk
# MX-1 = assay: soft agar disk diffusion zone of inhibition assay; assay type: cell-based, human; details: dose line (5, 1 or 0.3 ug/disk) not clear
# C16 = assay: in vivo chemotherapy of SC transplanted tumor; set-up: species or system mice
# Excerpt: as §2, §3, §4, §5, §6, §7, §8, §9, §10, §11, §12
# [7] = 5 ug/disk (figure before the colon)
# [8] = IV days: Glaucarubinone 4-15, Peninsularinone 3-13
# [9] = IV days 4,6,8,10,12,14 (Twice Daily)
# [10] = C16, IV days 3,5,7,9,11,13 (Twice Daily)
compound,measurement,setting,value
CC1=CC(=O)[C@@H](O)[C@]2(C)[C@H]3[C@@]4(O)OC[C@@]35[C@@H](C[C@@H]12)OC(=O)C[C@H]5[C@@H](C)[C@H]4O [Chaparrinone],zone of inhibition H8,H8; 5 ug/disk,270 ZONE UNITS
same,zone of inhibition CX-1,CX-1; 5 ug/disk,480 ZONE UNITS
same,zone of inhibition L1210,L1210; [7],5:200 ZONE UNITS
same,differential / selectivity for M17/Adr (Mam 17/Adr),M17/Adr,demonstrated selectivity
same,Cures,[1],3/5
same,MTD Total Dose,[1],232 mg/kg
same,"in vivo activity against C38, in words",[1],therapeutic activity
same,MTD Total Dose,[2],90 mg/kg
same,"in vivo activity against Mam 16/C, in words",[2],activity
same,% T/C,"[3]; MAM 17/AdR, IV days 1-10",42%
same,Cures,"[3]; MAM 17/AdR, IV days 1-10",0/5
same,MTD Total Dose,"[3]; MAM 17/AdR, IV days 1-10",260 mg/kg
same,"in vivo activity against Mam 17/Adr, in words","[3]; mouse, in vivo",activity
same,zone of inhibition C38,C38; 5 ug/disk,920 ZONE UNITS
same,solid tumor selectivity in vitro,[4],demonstrated solid tumor selectivity
CC(=O)O[C@H]1C(=O)O[C@@H]2C[C@H]3C(C)=CC(=O)[C@@H](O)[C@]3(C)[C@H]3[C@@]4(O)OC[C@]32[C@@H]1[C@@H](C)[C@H]4O [Holacanthone],zone of inhibition CX-1,CX-1; 12 ug/disk,900 ZONE UNITS
same,zone of inhibition L1210,L1210; 12 ug/disk,12:310 ZONE UNITS
same,differential / selectivity for M17/Adr (Mam 17/Adr),M17/Adr,demonstrated selectivity
same,Cures,[1],0.5
same,MTD Total Dose,[1],188 mg/kg
same,MTD Total Dose,[2],80 mg/kg
same,zone of inhibition C38,C38; 12 ug/disk,950 ZONE UNITS
same,solid tumor selectivity in vitro,[4],demonstrated solid tumor selectivity
CC[C@@H](C)C(=O)O[C@H]1C(=O)O[C@@H]2C[C@H]3C(C)=CC(=O)[C@@H](O)[C@]3(C)[C@H]3[C@@H](O)[C@H](O)[C@]4(C)OC[C@]32[C@@H]14 [simalikalactone D],cytopathic effect of porcine pseudorabies virus,[5],Inhibitory effect was also observed
same,"effect on tomato plants, in words","Tomato plants; 1:1000 and 1:10,000 dilutions in detergent solution, 30 days after treatment",still inhibited
same,"effect on tomato plants, in words",Tomato plants; 100 Mm diluted 1:100 in 0.1% Triton X-100,did not grow and eventually died
same,EC50,NADH oxidase,400 nM
same,EC50,"soybean hypocotyls; read-out: ED50, Inhibition of 2,4-D (1 μM)-induced growth",3500 nM
same,EC50,"soybean hypocotyls; read-out: ED50, Inhibition of control growth",2500 nM
same,cytopathic effect of human rhinovirus-14,human rhinovirus-14,Cytopathic effect was delayed
(−)-Peninsularinone,zone of inhibition H8,H8; 0.25 ug/disk,510 ZONE UNITS
same,cytopathic effect of porcine pseudorabies virus,[5],Inhibitory effect was also observed
same,zone of inhibition L1210,L1210; 0.25 ug/disk,0.25:310 ZONE UNITS
same,% T/C,[6]; [8],3%
same,Cures,[6]; [8],0/5
same,Log Cell Kill,[6]; [8],2.0
same,MTD Total Dose,[6]; [8],4.3 mg/kg
same,cytopathic effect of human rhinovirus-14,human rhinovirus-14,Cytopathic effect was delayed
same,"zone of inhibition (P388), printed in C38 column",P388,700 (P388) ZONE UNITS
Ailanthinone,zone of inhibition CX-1,CX-1; 2 ug/disk,300 ZONE UNITS
same,zone of inhibition L1210,L1210; 2 ug/disk,2:290 ZONE UNITS
same,zone of inhibition C38,C38; 2 ug/disk,340 ZONE UNITS
same,solid tumor selectivity in vitro,[4],no solid tumor selectivity
Glaucarubinone,zone of inhibition CX-1,"CX-1; dose line (5, 1 or 0.3 ug/disk) not clear",400 ZONE UNITS
same,"zone of inhibition (MX-1), printed in H8 column",MX-1,600 (MX-1) ZONE UNITS
same,zone of inhibition L1210,L1210; 0.3 ug/disk,160 ZONE UNITS
same,zone of inhibition L1210,L1210; 1 ug/disk,300 ZONE UNITS
same,zone of inhibition L1210,L1210; [7],600 ZONE UNITS
same,differential / selectivity for M17/Adr (Mam 17/Adr),M17/Adr,no differential
same,% T/C,[6]; [9],0%
same,Cures,[6]; [9],0.6
same,Log Cell Kill,[6]; [9],3.1
same,MTD Total Dose,[6]; [9],16 mg/kg
same,% T/C,[6]; [8],15%
same,Cures,[6]; [8],1/6
same,Log Cell Kill,[6]; [8],1.5
same,MTD Total Dose,[6]; [8],16 mg/kg
same,"in vivo activity against PO3, in words","[6]; mouse, in vivo",curative activity
same,Cures,[1],1/5
same,MTD Total Dose,[1],9.1 mg/kg
same,"in vivo activity against C38, in words",[1],curative activity
same,MTD Total Dose,[2],24 mg/kg
same,"in vivo activity against Mam 16/C, in words",[2],Antitumor activity
same,% T/C,C16; [10],42%
same,Cures,C16; [10],0/5
same,MTD Total Dose,C16; [10],18 mg/kg
same,"in vivo activity against Col26, in words","C16; mouse, in vivo",Antitumor activity
same,zone of inhibition C38,C38; 0.3 ug/disk,450 ZONE UNITS
same,zone differential between C38 and L1210,C38; 1 ug/disk,400 units
same,zone of inhibition C38,C38; 1 ug/disk,700 ZONE UNITS
same,zone of inhibition C38,C38; 5 ug/disk,950 ZONE UNITS
same,zone differential for PO3,"[4]; PO3 versus L1210, compared with 400 units for C38","similar, or greater differential"
same,solid tumor selectivity in vitro,[4],solid tumor selective
quassimarine,cytopathic effect of porcine pseudorabies virus,[5],Inhibitory effect was also observed
same,cytopathic effect of human rhinovirus-14,human rhinovirus-14,Cytopathic effect was delayed
